The target in the assay is human orexin-2 receptor (Homo sapiens (Human), UniProt O43614). Kind of assay: Human orexin 2 receptor radioligand binding ([3H]-EMPA competition). Conditions: HEK293 cells stably expressing human orexin-2 receptor; [3H]-EMPA 5 nM final; apparent Ki=IC50/(1+C/Kd), Kd=2 nM; read-out: OR 2 Ki.
human orexin-2 receptor, sequence (O43614 whole entry): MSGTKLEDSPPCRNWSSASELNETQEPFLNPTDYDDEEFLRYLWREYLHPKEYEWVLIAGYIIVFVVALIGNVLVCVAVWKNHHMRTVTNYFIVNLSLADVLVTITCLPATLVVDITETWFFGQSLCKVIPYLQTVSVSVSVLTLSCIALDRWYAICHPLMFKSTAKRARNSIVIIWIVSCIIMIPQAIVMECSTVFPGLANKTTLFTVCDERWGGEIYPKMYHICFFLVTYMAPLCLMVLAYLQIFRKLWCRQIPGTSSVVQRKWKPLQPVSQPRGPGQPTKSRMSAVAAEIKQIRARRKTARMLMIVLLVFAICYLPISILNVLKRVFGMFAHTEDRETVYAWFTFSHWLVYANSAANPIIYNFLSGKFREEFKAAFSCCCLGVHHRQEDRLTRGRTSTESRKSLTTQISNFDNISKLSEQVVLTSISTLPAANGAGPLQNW
For the molecule `COc1ccc(C(=O)N2CC3CN(c4cnc5cc(F)c(F)cc5n4)CC3C2)c(-n2nccn2)c1` (stereo not drawn) [Example 389, (5-(6,7-Difluoroquinoxalin-2-yl)hexahydropyrrolo[3,4-c]pyrrol-2(1H)-yl)(4-methoxy-2-(2H-1,2,3-triazol-2-yl)phenyl)methanone], the Ki turned out to be 22 nM.
As to `Cc1ccc(-c2ncccn2)c(C(=O)N2CC3CN(c4cc(C)nc(C(F)(F)F)n4)CC3C2)c1` (stereo not drawn) [Example 112, 2-[(5-Methyl-2-pyrimidin-2-ylphenyl)carbonyl]-5-[6-methyl-2-(trifluoromethyl)pyrimidin-4-yl]octahydropyrrolo[3,4-c]pyrrole], the Ki stood at 95 nM.
As for `COc1ccc(C(=O)N2CC3CN(c4cc(N(C)C)nc(C)n4)CC3C2)c(-n2nccn2)c1` (stereo not drawn) [Example 391, (5-(6-(Dimethylamino)-2-methylpyrimidin-4-yl)hexahydropyrrolo[3,4-c]pyrrol-2(1H)-yl)(4-methoxy-2-(2H-1,2,3-triazol-2-yl)phenyl)methanone], the figure is 28 nM; as for `Cc1cc(N2CC3CN(C(=O)c4ccccc4-n4nccn4)CC3C2)nc(N(C)C)n1` (stereo not drawn) [Example 120, N,N,4-Trimethyl-6-[5-{[2-(2H-1,2,3-triazol-2-yl)phenyl]carbonyl}hexahydropyrrolo[3,4-c]pyrrol-2(1H)-yl]pyrimidin-2-amine], 71 nM.
Take `O=C(c1ccccc1-c1cccs1)N1CC2CN(c3ncccc3C(F)(F)F)CC2C1` (stereo not drawn) [Example 140, 2-[(2-Thiophen-2-ylphenyl)carbonyl]-5-[3-(trifluoromethyl)pyridin-2-yl]octahydro pyrrolo[3,4-c]pyrrole]: the Ki is 119 nM.
To `Cc1cc(C)nc(N2CC3CN(C(=O)c4ccccc4-c4nnc[nH]4)CC3C2)n1` (stereo not drawn) [Example 14, 2-(4,6-Dimethylpyrimidin-2-yl)-5-{[2-(1H-1,2,4-triazol-5-yl)phenyl]carbonyl}octahydro-pyrrolo[3,4-c]pyrrole] belongs 28 nM.
As for `COc1ccnc(N2CC3CN(C(=O)c4c(C)ccc5ccccc45)CC3C2)n1` (stereo not drawn) [Example 49, 2-(4-Methoxypyrimidin-2-yl)-5-[(2-methylnaphthalen-1-yl)carbonyl]octahydro-pyrrolo[3,4-c]pyrrole], the figure is 78 nM; as for `Cc1cc(C)nc(N2CC3CN(C(=O)c4ccccc4Br)CC3C2)n1` (stereo not drawn) [Example 82, 2-[(2-Bromophenyl)carbonyl]-5-(4,6-dimethylpyrimidin-2-yl)octahydropyrrolo[3,4-c]pyrrole], 379 nM.
To `Cc1cc(N2CC3CN(C(=O)c4ccccc4-c4nnc[nH]4)CC3C2)nc(C(F)(F)F)n1` (stereo not drawn) [Example 96, 2-[6-Methyl-2-(trifluoromethyl)pyrimidin-4-yl]-5-{[2-(4H-1,2,4-triazol-3-yl)phenyl]carbonyl}octahydropyrrolo[3,4-c]pyrrole] belongs 68 nM; to `Cc1nc(=O)cc(N2CC3CN(C(=O)c4nc(C)sc4-c4ccc(F)cc4)CC3C2)[nH]1` (stereo not drawn) [Example 255, 6-[5-{[5-(4-Fluorophenyl)-2-methyl-1,3-thiazol-4-yl]carbonyl}hexahydropyrrolo[3,4-c]pyrrol-2(1H)-yl]-2-methylpyrimidin-4(3H)-one], 10000 nM.
Take `O=C(c1ccccc1-c1ccccc1)N1CC2CN(c3nccc(-c4ccco4)n3)CC2C1` (stereo not drawn) [Example 31, 2-(Biphenyl-2-ylcarbonyl)-5-(4-furan-2-ylpyrimidin-2-yl)octahydropyrrolo[3,4-c]pyrrole]: the Ki is 425 nM.
As to `Cc1cc(C)nc(N2CC3CN(C(=O)c4cc(Cl)ccc4C)CC3C2)n1` (stereo not drawn) [Example 223, 2-[(5-Chloro-2-methylphenyl)carbonyl]-5-(4,6-dimethylpyrimidin-2-yl)octahydropyrrolo[3,4-c]pyrrole], the Ki came to 340 nM.
As for `COc1ccc(C(=O)N2CC3CN(c4nc5ccccc5s4)CC3C2)c(OC)c1` (stereo not drawn) [Example 17, 2-{5-[(2,4-Dimethoxyphenyl)carbonyl]hexahydropyrrolo[3,4-c]pyrrol-2(1H)-yl}-1,3-benzothiazole], the Ki was 730 nM.
Take `O=C(c1ccccc1-n1nccn1)N1CC2CN(c3nccc(C(F)(F)F)n3)CC2C1` (stereo not drawn) [Example 153, 2-{[2-(2H-1,2,3-Triazol-2-yl)phenyl]carbonyl}-5-[4-(trifluoromethyl)pyrimidin-2-yl]octahydropyrrolo[3,4-c]pyrrole]: the Ki worked out at 75 nM.
`Cc1cc(N(C)C)nc(N2CC3CN(C(=O)c4ccccc4-n4nccn4)CC3C2)n1` (stereo not drawn) [Example 119, N,N,6-Trimethyl-2-[5-{[2-(2H-1,2,3-triazol-2-yl)phenyl]carbonyl}hexahydropyrrolo[3,4-c]pyrrol-2(1H)-yl]pyrimidin-4-amine]: the Ki was 51 nM.
As for `Cc1cncc(N2CC3CN(C(=O)c4ccccc4-n4nccn4)CC3C2)n1` (stereo not drawn) [Example 211, [5-(6-Methyl-pyrazin-2-yl)-hexahydro-pyrrolo[3,4-c]pyrrol-2-yl]-(2-[1,2,3]triazol-2-yl-phenyl)-methanone], the figure is 44 nM.
To `COc1ccccc1S(=O)(=O)N1CC2CN(c3nc(C)cc(C)n3)CC2C1` (stereo not drawn) [Example 359, 2-(4,6-Dimethylpyrimidin-2-yl)-5-((2-methoxyphenyl)sulfonyl)octahydropyrrolo[3,4-c]pyrrole] belongs 180 nM; to `O=C(c1ccccc1-c1cccc(F)c1)N1CC2CN(c3cnc4ccccc4n3)CC2C1` (stereo not drawn) [Example 29, 2-{5-[(3′-Fluorobiphenyl-2-yl)carbonyl]hexahydropyrrolo[3,4-c]pyrrol-2(1H)-yl}quinoxaline], 135 nM; to `CN(C)c1nc(N2CC3CN(C(=O)c4cc(F)ccc4-c4ncccn4)CC3C2)cc(C(F)(F)F)n1` (stereo not drawn) [Example 109, 4-{5-[(5-Fluoro-2-pyrimidin-2-ylphenyl)carbonyl]hexahydropyrrolo[3,4-c]pyrrol-2(1H)-yl}-N,N-dimethyl-6-(trifluoromethyl)pyrimidin-2-amine], 46 nM.
Consider `O=C(c1ccccc1-n1nccn1)N1CC2CN(c3nc(Cl)ncc3F)CC2C1` (stereo not drawn) [Example 291, 2-(2-Chloro-5-fluoropyrimidin-4-yl)-5-{[2-(2H-1,2,3-triazol-2-yl)phenyl]carbonyl}octahydropyrrolo[3,4-c]pyrrole], for which the Ki worked out at 266 nM.
For `COc1cc(N2CC3CN(C(=O)c4c(F)cccc4-n4nccn4)CC3C2)nc(N(C)C)n1` (stereo not drawn) [Example 1, 4-[5-{[2-Fluoro-6-(2H-1,2,3-triazol-2-yl)phenyl]carbonyl}hexahydropyrrolo[3,4-c]pyrrol-2(1H)-yl]-6-methoxy-N,N-dimethylpyrimidin-2-amine], the Ki was 37 nM.
For `CCOc1cccc(N2CC3CN(C(=O)c4ccccc4-n4nccn4)CC3C2)n1` (stereo not drawn) [Example 147, 2-(6-Ethoxypyridin-2-yl)-5-{[2-(2H-1,2,3-triazol-2-yl)phenyl]carbonyl}octahydro pyrrolo[3,4-c]pyrrole], the Ki stood at 85 nM.
With `Cc1cccc(-c2c(F)cccc2C(=O)N2CC3CN(c4nc(C)cc(C)n4)CC3C2)n1` (stereo not drawn) [Example 370, (5-(4,6-Dimethylpyrimidin-2-yl)hexahydropyrrolo[3,4-c]pyrrol-2(1H)-yl)(3-fluoro-2-(6-methylpyridin-2-yl)phenyl)methanone], the Ki came to 84 nM.
To `COc1ccccc1C(=O)N1CC2CN(c3nc4ccccc4o3)CC2C1` (stereo not drawn) [Example 180, (5-Benzooxazol-2-yl-hexahydro-pyrrolo[3,4-c]pyrrol-2-yl)-(2-methoxy-phenyl)-methanone] belongs 2300 nM; to `COc1cc(C)ccc1C(=O)N1CC2CN(c3nc(C)cc(C)n3)CC2C1` (stereo not drawn) [Example 276, (5-(4,6-Dimethylpyrimidin-2-yl)hexahydropyrrolo[3,4-c]pyrrol-2(1H)-yl)(2-methoxy-4-methylphenyl)methanone], 2950 nM.
For `Cc1cc(C)nc(N2CC3CN(C(=O)c4sccc4-n4cccc4)CC3C2)n1` (stereo not drawn) [Example 8, 2-(4,6-Dimethylpyrimidin-2-yl)-5-{[3-(1H-pyrrol-1-yl)thiophen-2-yl]carbonyl}octahydro-pyrrolo[3,4-c]pyrrole], the Ki amounted to 542 nM.
Take `Cc1cc(C)nc(N2CC3CN(C(=O)c4cccnc4-c4ncccn4)CC3C2)n1` (stereo not drawn) [Example 235, (5-(4,6-Dimethylpyrimidin-2-yl)hexahydropyrrolo[3,4-c]pyrrol-2(1H)-yl)(2-(pyrimidin-2-yl)pyridin-3-yl)methanone]: the Ki came to 560 nM.
`O=C(c1ccccc1-c1ccc(F)cc1)N1CC2CN(c3cnc4ccccc4n3)CC2C1` (stereo not drawn) [Example 28, 2-{5-[(4′-Fluorobiphenyl-2-yl)carbonyl]hexahydropyrrolo[3,4-c]pyrrol-2(1H)-yl}quinoxaline]: the Ki came out at 575 nM.
For `COc1ccc(C(C)(C)C)cc1C(=O)N1CC2CN(c3nc(C)cc(C)n3)CC2C1` (stereo not drawn) [Example 330, (5-tert-Butyl-2-methoxy-phenyl)-[5-(4,6-dimethyl-pyrimidin-2-yl)-hexahydro-pyrrolo[3,4-c]pyrrol-2-yl]-methanone], the Ki came to 10000 nM.
As for `Cc1cc(C)nc(N2CC3CN(C(=O)c4cccc(F)c4I)CC3C2)n1` (stereo not drawn) [Example 232, (5-(4,6-Dimethylpyrimidin-2-yl)hexahydropyrrolo[3,4-c]pyrrol-2(1H)-yl)(3-fluoro-2-iodophenyl)methanone], the figure is 52 nM; as for `Cc1cc(C)nc(N2CC3CN(C(=O)c4cccnc4-c4ccnn4C4CCCCO4)CC3C2)n1` (stereo not drawn) [Example 236, (5-(4,6-Dimethylpyrimidin-2-yl)hexahydropyrrolo[3,4-c]pyrrol-2(1H)-yl)(2-(1-(tetrahydro-2H-pyran-2-yl)-1H-pyrazol-5-yl)pyridin-3-yl)methanone], 10000 nM.
For `Cc1noc(-c2ccccc2C(=O)N2CC3CN(c4ncc(F)c(C)n4)CC3C2)n1` (stereo not drawn) [Example 310, 2-(5-Fluoro-4-methylpyrimidin-2-yl)-5-{[2-(3-methyl-1,2,4-oxadiazol-5-yl)phenyl]carbonyl}octahydropyrrolo[3,4-c]pyrrole], the Ki was 64 nM.
As for `Cc1cc(C)nc(N2CC3CN(C(=O)c4cccc(F)c4-c4ncccc4Cl)CC3C2)n1` (stereo not drawn) [Example 372, (2-(3-Chloropyridin-2-yl)-3-fluorophenyl)(5-(4,6-dimethylpyrimidin-2-yl)hexahydropyrrolo[3,4-c]pyrrol-2(1H)-yl)methanone], the figure is 109 nM.

(Values after US8653263B2 (Janssen Pharmaceutica, priority 2009, dated 2014).)
